Experimental data as given in article PMC7728077, “Double-Headed Cationic Lipopeptides: An Emerging Class of Antimicrobials” (International Journal of Molecular Sciences, 2020).
≈ marks a conversion by molar mass, not a printed value. Square brackets hold non-standard residues; d marks the D form. Peptide text beside a SMILES is read from it. * marks the point of attachment. Palmitoyl = CCCCCCCCCCCCCCCC(=O)*; Dab = NCC[C@H](N)C(=O)O

How the values were obtained:
[1] = tested on: MCF-7 breast cancer cell line; assay type: cell-based, human
[2] = Analytical RP-HPLC retention time as measure of hydrophobicity; assay type: physicochemical; details: Jupiter 4 µ Proteo 90 Å 250 x 4.60 mm, linear gradient 15-90% B in A in 30 min, 1 ml/min, A 0.1% aqueous TFA, B 80% acetonitrile in water with 0.1% TFA
Description: The lipopeptides were purified in a Waters RP-HPLC preparative system (Jupiter 4 µ Proteo column, 90 Å, 250 × 10 mm) with the linear gradient of solution B in A from 30% to 60% (A, 0.1% solution of TFA in water and B, 80% solution of ACN in water containing 0.1% of TFA) in 40 min with a flow rate of 5 mL/min. Final purity of the analogues (at least 97%) was determined using an analytical RP-HPLC Shimadzu system (Jupiter 4 µ Proteo column, 90 Å, 250 × 4.60 mm) with the linear gradient of solution B in A from 15% to 90% in 30 min with a flow rate of 1 mL/min. Identity of lipopeptides was confirmed by MALDI-TOF mass spectrometry. Analytical data of the synthesized analogues are presented in Table S1 (Supplementary Materials). ^a linear gradient 15-90% of B in A for 30 min, flow rate 1 ml/min, RP-HPLC Shimadzu system, column: Jupiter 4 µ Proteo, 90 Å, 250 x 4.60 mm; A – 0.1% aqueous TFA solution, B – 80% solution of acetonitrile in water with 0.1% of TFA; ^b molecular masses were determined using MALDI-TOF mass spectrometer.

[3] = tested on: 46BR.1N human skin fibroblasts cell line; assay type: cell-based
Description: (§1) Cytotoxicity was determined towards immortalized human HaCaT keratinocytes (DKFZ, Heidelberg, Germany), transformed human fibroblast cell line 46BR.1N (ECACC), as well as the human melanoma (A375), human lung cancer (A549), human colon cancer (HCT-116), human colon adenocarcinoma (HT-29), and human prostate cancer (LNCaP) cell lines. Keratinocytes and fibroblast cell lines were maintained in a humidified atmosphere with 5% CO2 at 37 °C in a Dulbecco’s modified Eagle’s medium (DMEM) (Sigma-Aldrich, Steinheim, Germany), which contained 4500 mg/L of glucose, 584 mg/L of L-glutamine, sodium pyruvate, and sodium bicarbonate. Additionally, the medium was supplemented with 10% of fetal bovine serum (FBS) (Sigma-Aldrich, Steinheim, Germany), 100 U/mL of penicillin, and 100 µg/mL of streptomycin (Sigma-Aldrich, Steinheim, Germany). The cells were grown in culture dishes (BD, Franklin Lakes, NJ, USA) and the medium was changed every 2 days. Afterwards, the fibroblasts and keratinocytes were harvested using a standard trypsin-EDTA solution, centrifuged, suspended in a medium supplemented with 10% FBS and seeded at a density of 5500–6000 cells per well into 96-well plates. After 24 h, the medium was exchanged with a serum- and antibiotic-free DMEM. The next day, serially diluted solutions of the lipopeptides prepared in a fresh FBS- and antibiotic-free medium were added to the wells. The potential cytotoxic effect of the compounds was analyzed over the concentration range of 1–25 µg/mL. After addition of the lipopeptides, cells were incubated for the next 24 h. At the end of the experiment, the cells were treated with 20 µL of MTT (5 mg/mL in PBS). After 3 h at 37 °C under 5% CO2, the medium was discarded and replaced by 6 mM HCl in isopropanol. As soon as the purple crystals of formazan were completely solubilized, absorbance was read at 570 nm with a plate reader. The optical density of the wells without the tested compounds were regarded as the positive control. The MTT assay was performed in triplicate for each cell line.
(§2) Determination of the half-maximum inhibitory concentrations (IC50) was done using GraphPad Prism 5 software (San Diego, CA, USA) based on the dose-response curves. The logarithm of the different concentrations of compounds was plotted against the percentage of inhibition in cell viability as compared with control probes, treated as 100%.

[4] = tested on: HaCaT human keratinocyte cell line; assay type: cell-based
Description: as §1, §2

[5] = tested on: HCT-116 human colorectal carcinoma; assay type: cell-based
Description: (§3) In the case of evaluation of cytotoxicity towards different types of the cancer cell lines (A375, A549, HCT-116, HT-29, and LNCaP, respective cells were seeded in 96-well plates (4500 cell/well) in the RPMI-1640 medium supplemented with 5% FBS without antibiotics and incubated for 24 h before stimulation with the lipopeptides. The next day, the cells were exposed to the effect of the serially diluted compounds added at concentrations ranging from 1 to 25 µg/mL for a period of 48 h. After the treatment, cells viability was evaluated by means of MTT assays, according to standard protocol, as just described. The experiment was repeated three times for each cell line.
as §2

[6] = tested on: LNCaP human prostate carcinoma; assay type: cell-based
Description: as §3, §2

[7] = tested on: HT-29 human colorectal adenocarcinoma; assay type: cell-based
Description: as §3, §2

[8] = tested on: A549 human epithelial lung carcinoma; assay type: cell-based
Description: as §3, §2

[9] = tested on: A375 human malignant melanoma cell line; assay type: cell-based
Description: as §3, §2

Row | Compound | IC50, MCF-7 (48h) [1] [µg/mL] | Retention time (used as measure of hydrophobicity) [2] [min] | IC50, 46BR.1N (24h) [3] [µg/mL] | IC50, HaCaT (24h) [4] [µg/mL] | IC50, HCT-116 (48h) [5] [µg/mL] | IC50, LNCaP (48h) [6] [µg/mL] | IC50, HT-29 (48h) [7] [µg/mL] | IC50, A549 (48h) [8] [µg/mL] | IC50, A375 (48h) [9] [µg/mL]
1 | CCCCCCCCCCCCCCCC(=O)NCCCC[C@H](NC(=O)[C@@H](N)CCCCN)C(=O)N[C@@H](CCCCN)C(N)=O [K(KC16)K-NH2] | 22.71 ± 0.79 (≈ 35.5 µM) | 24.731 | 9.36 ± 2.31 (≈ 14.6 µM) | 9.08 ± 2.28 (≈ 14.2 µM) | 20.72 ± 0.62 (≈ 32.4 µM) | >25 | 21.97 ± 1.10 (≈ 34.3 µM) | >25 | 20.34 ± 1.47 (≈ 31.8 µM)
2 | CCCCCCCCCCCCCCCC(=O)NCC[C@H](NC(=O)[C@@H](N)CCCCN)C(=O)N[C@@H](CCCCN)C(N)=O [K(DabC16)K-NH2] (H-Lys-[Dab](Palmitoyl)-Lys-NH2) | 16.28 ± 1.02 (≈ 26.6 µM) | 23.974 | 9.76 ± 0.70 (≈ 15.9 µM) | 7.96 ± 2.49 (≈ 13 µM) | 16.79 ± 0.34 (≈ 27.4 µM) | 14.3 ± 0.45 (≈ 23.4 µM) | 21.56 ± 0.22 (≈ 35.2 µM) | >25 | 11.99 ± 0.38 (≈ 19.6 µM)
3 | CCCCCCCCCCCCCCCC(=O)NCCCC[C@H](NC(=O)[C@H](CCCCN)NC(=O)[C@@H](N)CCCCN)C(=O)N[C@@H](CCCCN)C(=O)N[C@@H](CCCCN)C(N)=O [KK(KC16)KK-NH2] (H-KKK(Palmitoyl)KK-NH2) | >25 | 21.745 | 7.56 ± 1.31 (≈ 8.43 µM) | 11.92 ± 1.57 (≈ 13.3 µM) | 15.98 ± 0.16 (≈ 17.8 µM) | >25 | 18.98 ± 0.38 (≈ 21.2 µM) | >25 | >25
4 | CCCCCCCCCCCCCCCC(=O)NCCC[C@H](NC(=O)[C@@H](N)CCCCN)C(=O)N[C@@H](CCCCN)C(N)=O [K(OC16)K-NH2] | 15.47 ± 1.04 (≈ 24.7 µM) | 24.204 | 9.02 ± 0.69 (≈ 14.4 µM) | 6.25 ± 3.08 (≈ 9.98 µM) | 18.07 ± 0.54 (≈ 28.9 µM) | >25 | 20.51 ± 0.41 (≈ 32.8 µM) | >25 | 21.60 ± 0.76 (≈ 34.5 µM)
